These results are taken from ChEMBL document CHEMBL4819048, “IDO1 and TDO inhibitory evaluation of analogues of the marine pyrroloiminoquinone alkaloids: Wakayin and Tsitsikammamines” (Bioorg Med Chem Lett, 2021).

Holding throughout (format): cell-based
The nature of data set [1]: Cytotoxicity against human HEK293-EBNA cells assessed as cell viability at 6.25 uM by MTS/PMS assay. The settings on record: read-out: Activity.
Data set [2] deals with Tryptophan 2,3-dioxygenase (Homo sapiens) (UniProt P48775). The data set can be described thus: Inhibition of human TDO expressed in HEK293-EBNA cells assessed as reduction in kynurenine formation using tryptophan as substrate at 6.25 uM incubated for 24 hrs by HPLC analysis relative to control.
Data set [3] has the same target. Description: Inhibition of human TDO expressed in HEK293-EBNA cells assessed as reduction in kynurenine formation using tryptophan as substrate at 3.12 uM incubated for 24 hrs by HPLC analysis relative to control.
For data set [4] the target is unchanged. The data set can be described thus: Inhibition of human TDO expressed in HEK293-EBNA cells assessed as reduction in kynurenine formation using tryptophan as substrate at 12.5 uM incubated for 24 hrs by HPLC analysis relative to control.
Data set [5] can be described thus: Cytotoxicity against human HEK293-EBNA cells assessed as cell viability at 3.12 uM by MTS/PMS assay. The settings on record: read-out: Activity.
Data set [6] addresses Indoleamine 2,3-dioxygenase 1 (Homo sapiens) (UniProt P14902). Description: Inhibition of human IDO1 expressed in HEK293-EBNA assessed as reduction in kynurenine formation using tryptophan as substrate at 3.12 uM incubated for 24 hrs by HPLC analysis relative to control.
Data set [7] has the same target. Description: Inhibition of human IDO1 expressed in HEK293-EBNA cells assessed as reduction in kynurenine formation using tryptophan as substrate at 12.5 uM incubated for 24 hrs by HPLC analysis relative to control.
Data set [8] shares this target. Description: Inhibition of human IDO1 expressed in HEK293-EBNA cells assessed as reduction in kynurenine formation using tryptophan as substrate at 25 uM incubated for 24 hrs by HPLC analysis relative to control.
Data set [9] in a line: Cytotoxicity against human HEK293-EBNA cells assessed as cell viability at 25 uM by MTS/PMS assay. The settings on record: read-out: Activity.
Data set [10] addresses Tryptophan 2,3-dioxygenase (Homo sapiens) (UniProt P48775). Description: Inhibition of human TDO expressed in HEK293-EBNA cells assessed as reduction in kynurenine formation using tryptophan as substrate at 25 uM incubated for 24 hrs by HPLC analysis relative to control.
Data set [11] can be described thus: Cytotoxicity against human HEK293-EBNA cells assessed as cell viability at 12.5 uM by MTS/PMS assay. The settings on record: read-out: Activity.
The target of data set [12] is Indoleamine 2,3-dioxygenase 1 (Homo sapiens) (UniProt P14902). Description: Inhibition of human IDO1 expressed in HEK293-EBNA cells assessed as reduction in kynurenine formation using tryptophan as substrate at 6.25 uM incubated for 24 hrs by HPLC analysis relative to control.
Chain of Indoleamine 2,3-dioxygenase 1 (Homo sapiens) (P14902 whole entry, looked up): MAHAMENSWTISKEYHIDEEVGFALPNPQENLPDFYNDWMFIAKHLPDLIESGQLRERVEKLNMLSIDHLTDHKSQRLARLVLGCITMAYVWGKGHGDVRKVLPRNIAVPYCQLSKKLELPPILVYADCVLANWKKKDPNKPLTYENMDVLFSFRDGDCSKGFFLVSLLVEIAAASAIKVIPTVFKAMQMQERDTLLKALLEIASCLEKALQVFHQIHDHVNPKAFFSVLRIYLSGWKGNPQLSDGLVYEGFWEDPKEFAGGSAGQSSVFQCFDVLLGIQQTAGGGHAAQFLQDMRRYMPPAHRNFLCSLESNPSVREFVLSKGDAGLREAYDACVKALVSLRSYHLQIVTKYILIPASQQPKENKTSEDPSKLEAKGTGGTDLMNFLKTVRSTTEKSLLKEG

Chain of Tryptophan 2,3-dioxygenase (Homo sapiens) (P48775 whole entry, looked up): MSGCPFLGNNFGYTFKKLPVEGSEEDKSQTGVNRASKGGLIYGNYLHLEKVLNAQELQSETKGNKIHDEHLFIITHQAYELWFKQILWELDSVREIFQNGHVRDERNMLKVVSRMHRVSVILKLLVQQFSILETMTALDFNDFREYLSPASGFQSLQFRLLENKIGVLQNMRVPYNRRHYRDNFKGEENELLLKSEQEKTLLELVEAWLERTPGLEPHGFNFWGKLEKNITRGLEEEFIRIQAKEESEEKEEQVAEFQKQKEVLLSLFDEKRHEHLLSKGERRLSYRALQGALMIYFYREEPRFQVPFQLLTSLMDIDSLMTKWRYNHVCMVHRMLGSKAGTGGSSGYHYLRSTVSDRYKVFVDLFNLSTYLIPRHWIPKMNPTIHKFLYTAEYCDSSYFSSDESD

As to `Cc1ccc(S(=O)(=O)n2cc3c4c2C(=O)c2cn[nH]c2C4=NCC3)cc1`, the viability at 6.25 µM in [1] amounted to 106%. Moreover, the inhibition (as a rule, the share of the control response that was lost under treatment) was found to be 19% in data set [2]; 15% in data set [3]; 23% in data set [4]; 10% in data set [6]; 15% in [7]; 11% in data set [8]. Besides, the inhibition in [10] was 15%; in [12] it was 12%. The viability at 3.12 µM in data set [5] came out at 87%. The viability at 25 µM in [9] turned out to be 93%. For the same compound, in data set [11], the viability at 12.5 µM was found to be 110%.
